Data on 3 compounds can be found in publication PMC8325564 (Biochemistry, 2020).

Molecules are shown by their SMILES. “And” between values parts separate entries of the source, which are not always exact repeats. Equal entries are not always repeated. Where two headings read alike, the source gives them in different places.

The subject of test [1] is AKeco (E. coli adenylate kinase). The note with it: cited from earlier work.
In test [2] the target is T1, AKeco (Escherichia coli, UniProt P69441). The note with it: binding to AKeco; cited from earlier work.
Test [3] deals with T1, AKeco. As to the kind of experiment: NMR titration of ATP to AKeco with adenosine binding sites blocked by AP5A. Further details: species or system E. coli.
Another test deals with LcrG (Yersinia pseudotuberculosis serotype I, UniProt P69958). As to the kind of experiment: biochemical. Format: binding.
Test [4] has as its target T2, AK3 (Homo sapiens, UniProt Q9UIJ7). As to the kind of experiment: isothermal titration calorimetry. Type of test: binding. The note with it: for ΔHITC0: ITC binding enthalpy; for ΔHITC0 / −TΔSITC0 / ΔGITC0 / Kd: 25 °C; for −TΔSITC0: ITC binding entropy term; for ΔGITC0: ITC binding free energy; for n: ITC binding ratio (stoichiometry); for Kd: ITC. On the technique in general: In ITC the heat of successive injections is recorded.

The target in a further test is human α-synuclein (Homo sapiens, UniProt P37840). As to the kind of experiment: NMR titration of ATP to α-synuclein. Type of test: binding.
Test [5] has as its target T2, AK3. The experiment in a line: biochemical. The note with it: KI´ (competitive inhibition), mixed inhibition model, 1.7 mM ATP, AMP variation.
Test [6] addresses T2, AK3. As to the kind of experiment: NMR 15N-HSQC chemical shift titration of ligand binding to AK3.
In test [7] the target is T2, AK3. The experiment in a line: coupled enzymatic assay of AK3 activity. Type of test: biochemical.
[8] abbreviates: Table 2, average of three technical replicates, pH 7.0.

T2 sequence (Q9UIJ7 whole entry): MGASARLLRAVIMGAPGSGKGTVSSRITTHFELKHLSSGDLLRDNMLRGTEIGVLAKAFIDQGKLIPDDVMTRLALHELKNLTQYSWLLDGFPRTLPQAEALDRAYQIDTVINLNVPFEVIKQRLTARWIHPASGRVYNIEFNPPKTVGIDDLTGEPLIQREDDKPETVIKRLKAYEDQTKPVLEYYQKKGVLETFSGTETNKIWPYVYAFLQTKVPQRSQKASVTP
T1 sequence (P69441 whole entry): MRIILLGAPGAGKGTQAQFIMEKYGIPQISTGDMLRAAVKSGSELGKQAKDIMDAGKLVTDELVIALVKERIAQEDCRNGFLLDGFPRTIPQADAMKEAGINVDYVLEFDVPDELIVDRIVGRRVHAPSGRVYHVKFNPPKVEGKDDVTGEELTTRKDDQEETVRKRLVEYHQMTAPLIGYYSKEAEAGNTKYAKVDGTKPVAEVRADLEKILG
Chain of LcrG (P69958 whole entry, looked up): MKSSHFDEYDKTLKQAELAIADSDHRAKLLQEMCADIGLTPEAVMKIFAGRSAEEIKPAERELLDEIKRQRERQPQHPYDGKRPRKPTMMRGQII

What is called Km is the substrate concentration at which the rate is half of its maximum. For orientation: Kd means the constant that tells how readily two partners part at equilibrium. Broadly, the Ki is the equilibrium dissociation constant of an inhibitor or competing ligand from its target. On to `Nc1ncnc2c1ncn2[C@@H]1O[C@H](COP(=O)(O)OP(=O)(O)OP(=O)(O)O)[C@@H](O)[C@H]1O` [ATP, adenosine triphosphate], for which the Km in test [1] (AKeco with ATP) was 63 ± 7 µM. Besides, the “difference of the catalytic activity between ATP and GTP” value in test [1] (AKeco) is recorded as 60 fold. The Kd was 50 µM on AKeco [2]; 12000 ± 2100 µM at AKeco [3]; 12000 ± 800 µM at LcrG; about 13 µM on AK3 [4] (30 mM MOPS pH 7.0, 50 mM NaCl); 13 ± 2 µM on AK3 [4] (setting [8]); 13000 ± 2400 µM at human α-synuclein. For the same compound, the Kd on AK3 [6] was 9000 ± 3800 µM. On AK3 [4] (pH 7.0), the ΔHITC0 is on record as −11.1 ± 0.5 kcalmol^−1. Further, the “−TΔSITC0” value at AK3 [4] (pH 7.0) is listed as 4.4 ± 0.6 kcalmol^−1. The ΔGITC0 on AK3 [4] (pH 7.0) was −6.7 ± 0.1 kcalmol^−1. The n at AK3 [4] is listed as 0.94 ± 0.015. Moreover, affinity at AK3 [5] was put at a Ki of 200 µM.
`Nc1nc2c(ncn2[C@@H]2O[C@H](COP(=O)(O)OP(=O)(O)OP(=O)(O)O)[C@@H](O)[C@H]2O)c(=O)[nH]1` [GTP, guanosine triphosphate]: on AK3 [4] (pH 7.0), the ΔHITC0 is listed as −11.3 ± 0.3 kcalmol^−1, the “−TΔSITC0” value is given as 3.5 ± 0.4 kcalmol^−1 and the ΔGITC0 is on record as −7.8 ± 0.1 kcalmol^−1. The n at AK3 [4] is 1.07 ± 0.025. Moreover, the equilibrium dissociation constant (Kd) on AK3 [4] (30 mM MOPS pH 7.0, 50 mM NaCl) is ~2 µM and 2 µM. Moreover, the Kd at AK3 [4] (setting [8]) was 2.1 ± 0.5 µM. Besides, the “catalytic GTP versus ATP specificity” value at AK3 [7] is about 40 fold. Further, at AK3 [6], the equilibrium dissociation constant (Kd) amounted to 1700 ± 1000 µM.
Turning to `Nc1ncnc2c1ncn2[C@@H]1O[C@H](COP(=O)(O)O)[C@@H](O)[C@H]1O` [AMP, adenosine monophosphate], on AKeco [2], the Kd is 210 ± 66 µM.
